Measured values from patent US20100035865A1, “Sulfonamides and Pharmaceutical Compositions Thereof” (PFIZER INC, priority 2007, published 2010).
“And” between values parts separate entries of the source, which are not always exact repeats. Equal entries are not always repeated. Where two headings read alike, the source gives them in different places.

How the values were obtained:
AMPA receptors [1] = assay: AMPA ES Cell FLIPR Screen, G7330A (single dose % effect); assay type: cell-based, murine; details: Dose 32.0 uM; mean (range and n in cells below); ES cell-derived neurons, 32 uM AMPA challenge; negative control AMPA alone, positive control AMPA plus cyclothiazide
Procedure: (§1) The murine ES cell line used was E14-Sx1-16C, which has a targeted mutation in the Sox1 gene, a neuroectodermal marker, that offers G418 resistance when the Sox1 gene is expressed (Stem Cell Sciences). ES cells were maintained undifferentiated as previously described (Roach). […] ES cells were plated on gelatin-coated dishes (BD Biosciences), the media was changed daily and the cells were dissociated with 0.05% Trypsin EDTA (Invitrogen) every other day.
(§2) Embryoid Body Formation: Prior to embryoid body (EB) formation the ES cells were weaned from FBS onto Knockout Serum Replacement (KSR) (Invitrogen). To form EBs, ES cells were dissociated into a single cell suspension then 3×10^6 cells were plated in bacteriology dishes (Nunc 4014) and grown as a suspension culture in NeuroEB-I medium that consisted of Knockout™ D-MEM (Invitrogen), supplemented with 10% KSR (Invitrogen), 0.2 mM L-Glutamine (Invitrogen), 0.1 mM MEM non-essential amino acids (Invitrogen), 30 μg/ml Gentamicin (Invitrogen), 1000 u/ml ESGRO (Chemicon), 0.1 mM 2-Mercaptoethanl (Sigma) and 150 ng/ml Transferrin (Invitrogen). The plates were put on a Stovall Belly Button shaker in an atmospheric oxygen incubator. The media was changed on day 2 of EB formation with NeuroEB-I and on day 4 with NeuroEB-II (NeuroEB-I plus 1 μg/ml mNoggin [R&D Systems]).
(§3) Neuronal Precursor Selection and Expansion: On day 5 of EB formation, EBs were dissociated with 0.05% Trypsin EDTA, and 4×10^6 cells/100 mm dish were plated on Laminin coated tissue culture dishes in NeuroII-G418 medium that consisted of a base medium of a 1:1 mixture of D-MEM/F12 supplemented with N2 supplements and NeuroBasal Medium supplemented with B27 supplement and 0.1 mM L-Glutamine (all from Invitrogen). The base medium was then supplemented with 10 ng/ml bFGF (Invitrogen), 1 μg/ml mNoggin, 500 ng/ml SHH-N, 100 ng/ml FGF-8b (R&D Systems), 1 μg/ml Laminin and 200 μg/ml G418 (Invitrogen) for selection of neuronal precursors expressing Sox-1. The plates were put in an incubator that contained 2% Oxygen and were maintained in these conditions. During the 6-day selection period, the NeuroII media was changed daily. On day 6, the surviving neuronal precursor foci were dissociated with 0.05% Trypsin EDTA and the cells were plated at a density of 1.5×10^6 cells/100 mm Laminin coated dish in NeuroII-G418 medium. The cells were dissociated every other day for expansion, and prepared for Cryopreservation at passage 3 or 4. The cryopreservation medium contained 50% KSR, 10% Dimethyl Sulfoxide (DMSO) (Sigma) and 40% NeuroI-G418I medium. Neuronas precursors were crypreserved at a concentration of 4×10^6cells/ml and 1 ml/cryovial in a controlled rate freezer overnight then transferred to an ultra-low freezer or liquid nitrogen for long-term storage,
(§4) Neuronal Differentiation: Cryopreserved ES cell-derived neuronal precursors were thawed by the rapid thaw method in a 37-degree water-bath. The cells were transferred from the cryovial to a 100 mm Laminin coated tissue culture dish that already contained NeuroII-G418 that had been equilibrated in a 2% Oxygen incubator. The media was changed with fresh NeuroII-G418 the next day. The cells were dissociated every other day as described above for expansion to generate enough cells to plate for the screen. For the screen, the cells were plated into 384-well poly-d-lysine coated tissue culture dishes (BD Biosciences) by the automated SelecT at a cell density of 6K cells/well in differentiation medium NeuroIII that contained a 4:1 ratio of the NeuroBasalMedium/B27:D-MEM/F12/N2 supplemented with 1 μM cAMP (Sigma), 200 μM Ascorbic Acid (Sigma), 1 μg/ml Laminin (Invitrogen) and 10 ng/ml BDNF (R&D Systems). The plates were put in an incubator with 2% Oxygen and allowed to complete the differentiation process for 7 days. The cells could then be used over a 5-day period for the high throughput screen.
(§5) Procedure for AMPA ES Cell FLIPR Screen […]

AMPA receptors [2] = assay: AMPA ES Cell FLIPR Screen, G7330B (EC50 and % effect); assay type: cell-based, murine; details: for EC50: ES cell-derived neurons, 32 uM AMPA challenge
Procedure: as §1, §2, §3, §4, §5

[3] = Dose 32.0 uM, individual determinations
[4] = individual determinations, read-out: G7330B (U): EC50
[5] = mean of individual determinations (range and n in cells below), read-out: G7330B mean EC50
[6] = Dose 31.6 uM, individual determinations

Row | Structure (SMILES) | EC50 (AMPA receptors [2]; [4]) | EC50 (AMPA receptors [2]; [5]) [µM] | G7330A: % Effect (AMPA receptors [1]) [%] | G7330B (U): % Effect (AMPA receptors [2]; [3]) | G7330B (U): % Effect (AMPA receptors [2]; [6])
1 | CCCS(=O)(=O)N[C@@H]1CNCC[C@@H]1c1ccc(-c2ccccc2)cc1 (relative stereo) [Example 12, Propane-1-sulfonic acid(cis-4-biphenyl-4-yl-piperidin-3-yl)-amide] |  |  | 0.110 | 0.428% and −0.204% and −0.02059% and 0.243% | 
2 | CCS(=O)(=O)N[C@@H]1CNCC[C@@H]1c1ccc(-c2ccccc2)cc1 (relative stereo) [Example 11, Ethanesulfonic acid (cis-4-biphenyl-4-yl-piperidin-3-yl)-amide] |  |  | 2.34 | 1.55% and 3.14% and 2.25% and 2.45% | 
3 | CCCS(=O)(=O)N[C@@H]1CNCC[C@H]1c1ccc(-c2ccccc2)cc1 (relative stereo) [Example 10, Propane-1-sulfonic acid (trans-4-biphenyl-4-yl-piperidin-3-yl)-amide] | > 32 µM | > 32 | 11.2 | 23.4% and 19.5% and 18.5% and 5.64% and 6.55% and 7.27% | 
4 | CC(C)S(=O)(=O)N[C@@H]1CN(C)CC[C@@H]1c1ccc(-c2ccccc2)cc1 (relative stereo) [Example 7, propane-2-sulfonic acid (cis-4-biphenyl-4-yl-1-methyl-piperidin-3-yl)-amide] |  |  | −0.867 |  | −0.0209% and −0.612% and −1.41% and −1.42%
5 | CC(C)S(=O)(=O)N[C@@H]1CCNC[C@H]1c1ccc(-c2ccccc2C(N)=O)cc1 (relative stereo) [Example 21, 4′-[trans-4-(Propane-2-sulfonylamino)-piperidin-3-yl]-biphenyl-2-carboxylic acid amide] | > 32 µM | > 32 |  | 0.573% and 0.266% and 0.149% | 
6 | CS(=O)(=O)N[C@@H]1CNCC[C@H]1c1ccc(-c2ccccc2)cc1 (relative stereo) [Example 8, N-(trans-4-Biphenyl-4-yl-piperidin-3-yl)-methanesulfonamide] | > 32 µM | > 32 | 56.3 | 62.1% and 46.9% and 54.7% and 34.7% and 36.6% and 38.0% | 
7 | CC(C)S(=O)(=O)N[C@@H]1CN(C)CC[C@H]1c1ccc(-c2ccccc2)cc1 [Example 4, Propane-2-sulfonic acid ((3S,4S)-4-biphenyl-4-yl-1-methyl-piperidin-3-yl)-amide] | > 32 µM | > 32 |  | 4.29% and 2.21% and 2.27% and 2.45% and 2.50% and 6.32% and 2.96% and 5.62% and 0.525% | 
8 | CC(C)S(=O)(=O)NC1CCN(S(C)(=O)=O)CC1c1ccc(-c2ccccc2)cc1 (stereo not drawn) [Example 26, Propane-2-sulfonic acid(trans-3-biphenyl-4-yl-1-methanesulfonyl-piperidin-4-yl)-amide] | > 32 µM | > 32 |  | 13.3% and 10.8% and 9.95% | 
9 | CC(C)S(=O)(=O)NC1CCNCC1c1ccc(-c2cc(Cl)ccc2Cl)cc1 (stereo not drawn) [Example 23, Propane-2-sulfonic acid[trans-3-(2′,5′-dichloro-biphenyl-4-yl)-piperidin-4-yl)]-amide] | > 32 µM | > 32 |  | 10.1% and 9.71% and 6.91% | 

Continued, in another order:

Row | EC50 (AMPA receptors [2]; [4]) | EC50 (AMPA receptors [2]; [5]) [µM] | Structure (SMILES) | G7330A: % Effect (AMPA receptors [1]) [%] | G7330B (U): % Effect (AMPA receptors [2]; [3]) | G7330B (U): % Effect (AMPA receptors [2]; [6])
10 | > 32 µM | > 32 | O=S(=O)(CC(F)(F)F)NC1CNCCC1c1ccc(-c2ccccc2)cc1 (stereo not drawn) [Example 13, 2,2,2-Trifluoro-ethanesulfonic acid(trans-4-biphenyl-4-yl-piperidin-3-yl)-amide] | 43.7 | 27.9% and 46.2% and 59.8% and 48.9% and 30.2% and 28.1% | 
11 | 16.8 µM and 11.1 µM and 12.5 µM | 13.2 | CC(C)S(=O)(=O)N[C@@H]1CNCC[C@H]1c1ccc(-c2ccccc2)cc1 (relative stereo) [Example 1, propane-2-sulfonic acid (trans-4-biphenyl-4-yl-piperidin-3-yl)-amide] | 87.1 | 86.8% and 115% and 132% and 92.5% and 85.0% | 
12 | 4.43 µM and 5.97 µM and 3.78 µM and 8.04 µM | 5.32 | CC(C)S(=O)(=O)N[C@@H]1CN(C)CC[C@H]1c1ccc(-c2ccccc2)cc1 (relative stereo) [Example 2, propane-2-sulfonic acid (trans-4-biphenyl-4-yl-1-methyl-piperidin-3-yl)-amide] | 112 | 127% and 141% and 134% and 142% and 151% and 173% and 180% | 
13 | > 31.6 µM | > 31.6 | CC(C)S(=O)(=O)N[C@@H]1CCN(C)C[C@H]1c1ccc(NC(=O)c2ccccc2)cc1 (relative stereo) [Example 44, N-{4-[trans-1-Methyl-4-(propane-2-sulfonylamino)-piperidin-3-yl]-phenyl}-benzamide] |  |  | 1.85% and 1.10% and 5.81%
14 |  | > 4.2 | CC(C)S(=O)(=O)N[C@H]1CN(C)CC[C@@H]1c1ccc(-c2ccccc2)cc1 [Example 3, Propane-2-sulfonic acid ((3R,4R)-4-biphenyl-4-yl-1-methyl-piperidin-3-yl)-amide] |  | 99.8% and 94.3% and 83.1% and 129% and 98.9% and 119% | 
15 | 2.57 µM | 2.57 | CC(C)S(=O)(=O)NC1COCCC1c1ccc(-c2ccc(F)cc2)cc1 (stereo not drawn) [Example 32, Propane-2-sulfonic acid[trans-4-(4′-fluoro-biphenyl-4-yl)-tetrahydro-pyran-3-yl]-amide] |  |  | 120% and 127% and 115%
16 | 8.97 µM | 8.97 | CC(C)S(=O)(=O)NC1COCCC1c1ccc(-c2ccc(C#N)cc2)cc1 (stereo not drawn) [Example 35, Propane-2-sulfonic acid[trans-4-(4′-cyano-biphenyl-4-yl)-tetrahydro-pyran-3-yl]-amide] |  |  | 146% and 155% and 152%
17 | > 31.6 µM | > 31.6 | CC(C)S(=O)(=O)N[C@@H]1CCN(C)C[C@H]1c1ccc(NC(=O)c2cc(F)cc(F)c2)cc1 (relative stereo) [Example 45, 3,5-Difluoro-N-{4-[trans-1-methyl-4-(propane-2-sulfonylamino)-piperidin-3-yl]-phenyl}-benzamide] |  |  | −0.114% and 0.0432% and −0.344%
18 | 10.4 µM and > 31.6 µM and > 10 µM | > 18.2 | CCS(=O)(=O)NC1CCOCC1c1ccc(-c2ccccc2)cc1 (stereo not drawn) [Example 16, Ethanesulfonic acid(trans-3-biphenyl-4-yl-tetrahydro-pyran-4-yl)-amide] |  | 153% and 141% and 140% | 
19 | 20.2 µM | 20.2 | CC(=O)N1CC[C@@H](NS(=O)(=O)C(C)C)[C@H](c2ccc(NC(=O)c3ccccc3)cc2)C1 (relative stereo) [Example 39, N-{4-[trans-1-Acetyl-4-(propane-2-sulfonylamino)-piperidin-3-yl]-phenyl}-benzamide] |  |  | 145% and 142%
20 | 1.94 µM | 1.94 | CCOc1ccccc1-c1ccc(C2CCOCC2NS(=O)(=O)C(C)C)cc1 (stereo not drawn) [Example 33, Propane-2-sulfonic acid[trans-4-(2′-ethoxy-biphenyl-4-yl)-tetrahydro-pyran-3-yl]-amide] |  |  | 122% and 121%
